The structures appear in SMILES notation.

The values that follow come from US10544089B2, “Innovative preparation and crystallization of iosimenol” (OTSUKA PHARMACEUTICAL CO., LTD., priority 2015, dated 2020).

A short description of data set [1]: Solubility of iosimenol in organic solvents (crystallization attempts). The data set is classed as physicochemical. An excerpt:
The present inventors applied crystallization methods described in literature, but this approach always failed, independently on using crude or purified iosimenol. If any solid was obtained, we usually obtained solid of gummy consistency and we never observed any purity increase.

Data set [2] can be described thus: Heat stability of iosimenol in crystallization solution (colour change, impurities). It counts as physicochemical. As to conditions: between 80-110° C. The source says: Although contrast media are relatively stable compounds, usually after a long-term exposure to heat, certain degradation may occur. The most vulnerable are amide groups and covalently bound iodine. In case of iosimenol, the acidic hydrogens on aliphatic carbon of malonyl group may cause cleavage of the bridge at higher temperature and can lead to form monomeric impurities. These all mentioned degradations are more intensive under strong acidic or strong basic conditions. Using our experience in formulation of iosimenol, we used trometamol as a buffer to control pH between 6-7 from the viewpoint of influencing of color. Ideal conditions for iosimenol crystallization are when the crystallization is performed at shortest process time at lowest possible temperature under suitable and controlled pH between 6-7 by buffer from the viewpoint of influencing of color.
Therefore, ideal conditions for crystallization are temperatures between 80-110° C., pH 6-7 and as short as possible time for crystallization.

As to `NC(=O)c1c(I)c(C(=O)NCC(O)CO)c(I)c(N(CC(O)CO)C(=O)CC(=O)N(CC(O)CO)c2c(I)c(C(N)=O)c(I)c(C(=O)NCC(O)CO)c2I)c1I` (stereo not drawn) [iosimenol, N,N′-bis[3-carbamoyl-5-(2,3-dihydroxypropyl-carbamoyl)-2,4,6-triiodophenyl]-N,N′-bis(2,3-dihydroxypropyl)-malonamide], in data set [1] (alcohols, ethers and alkoxyalcohols), the solubility in solvents entry is listed as “practically insoluble”. In addition, the “solubility in aprotic solvents” value in data set [1] (aprotic solvents like dimethylformamide) is given as “extremely high solubility”. In addition, the “degradation on heating (impurities)” value in data set [2] is given as “no new impurities or increased level of known impurities are observed”.
